Measurements published in patent US20190117555A1, “SUBLINGUAL COMPOSITIONS COMPRISING NATURAL EXTRACTS AND USES THEREOF” (HARMONIC PHARMA, priority 2016, published 2019).

How the values were obtained:
TNF-α = TNF-α release by LPS-stimulated PBMCs (HTRF); type: cell-based; details: Homo sapiens, PBMC, 5 μg/mL LPS, 24 h, read-out: % inhibition TNF-α (Standard deviation)
Procedure: (§1) Interleukin-1beta (IL-1beta) and tumor necrosis factor-alpha (TNF-alpha) mediate the development of numerous inflammatory diseases. IL-1beta and TNF-alpha therefore constitute suitable biomarkers to characterize the anti-inflammatory property of compounds of the part of branch extracts of the invention.
(§2) Peripheral blood mononuclear cells (PBMCs) were prepared from the peripheral blood of healthy donors (Etablissement Français du Sang) according to Kümmerle et al. (J Med Chem. 2012, 55, 7525-7545) with slight modifications. PBMCs were isolated using Histopaque gradient (Sigma), washed in Hanks' balanced salt solution (Sigma) and were then cultured in RPMI-1640 medium (Sigma) supplemented with 10% (v/v) fetal bovine serum (FBS) (PAA), 100 U/mL penicillin and 100 μg/mL streptomycin (PAA). PBMCs were seeded into 96-well plates (8×10^4 cells/well) and stimulated with 5 μg/mL LPS (Lipopolysaccharides, Sigma), into a total volume of 120 μL per well. HMR was re-suspended in DMSO and tested at 10, 30, and 100 μM (DMSO 1%) in duplicate. […] Cells incubation was realized at 37° C. (5% CO2).
(§3) After 24 h, PBMCs supernatants were transferred into a 384-well plate. Cytokine detection was performed using HTRF technology (Cisbio bioassays) for TNF-α (62TNFPEC), IL-1β (62IL1PEC) according to supplier recommendations. Reading was performed after 3 h of incubation using Envision multi-labelled reader (PerkinElmer) using supplier recommended parameters.

Human 5-LO = biological target: T1, Human 5-LO (Homo sapiens, UniProt P09917); experiment: Human 5-LO inhibition assay; type: biochemical; details: HMR 10 μM; extract equiv. 10 μM
T1 sequence (P09917 1-674): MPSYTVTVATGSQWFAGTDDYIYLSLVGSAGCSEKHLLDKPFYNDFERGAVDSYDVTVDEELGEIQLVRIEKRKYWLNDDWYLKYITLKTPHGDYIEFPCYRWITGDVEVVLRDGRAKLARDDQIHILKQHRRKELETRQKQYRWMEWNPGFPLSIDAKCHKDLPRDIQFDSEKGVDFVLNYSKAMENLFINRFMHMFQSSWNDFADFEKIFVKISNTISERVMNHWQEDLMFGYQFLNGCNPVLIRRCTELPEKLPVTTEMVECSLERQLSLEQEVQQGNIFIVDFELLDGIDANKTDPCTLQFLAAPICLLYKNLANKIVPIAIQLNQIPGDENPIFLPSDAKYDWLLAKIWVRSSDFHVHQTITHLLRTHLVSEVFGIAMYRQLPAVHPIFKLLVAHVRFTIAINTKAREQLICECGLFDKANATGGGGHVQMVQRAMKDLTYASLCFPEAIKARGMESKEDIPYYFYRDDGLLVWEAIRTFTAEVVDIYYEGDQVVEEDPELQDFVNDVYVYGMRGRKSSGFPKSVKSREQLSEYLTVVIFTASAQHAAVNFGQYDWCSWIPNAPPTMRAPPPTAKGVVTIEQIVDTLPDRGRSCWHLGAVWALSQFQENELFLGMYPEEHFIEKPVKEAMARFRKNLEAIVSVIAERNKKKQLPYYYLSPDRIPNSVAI
Procedure: Human 5-LO Inhibition Assay:
The test compound, reference compound or water (control) were preincubated for 5 min at room temperature with 10^4 lysed cells/well in a buffer containing 50 mM Tris-HCl (pH 7.4), 5 mM CaCl2, 2 mM EDTA, 1 μM ATP and 50 nM fluorescent probe dihydrorhodamine 123. The fluorescence intensity was then measured at λex=485 nm and λem=535 nm using a microplate reader (Envision, Perkin Elmer). This measurement at t=0 allowed the detection of any compound interference with the fluorimetric detection method at these wavelengths. Thereafter, the reaction was initiated by adding 25 μM of the substrate arachidonic acid and the mixture was incubated for 20 min at room temperature. The reaction was stopped by adding a buffer containing 67% acetonitrile and 0.2% acetic acid and the fluorescence intensity emitted by the reaction product rhodamine 123 was measured at the same wavelengths (t=20). The enzyme activity was determined by subtracting the signal measured at t=0 from that measured at t=20.
The results are expressed as a percent inhibition of the control activity.

IL-1β = IL-1β release by LPS-stimulated PBMCs (HTRF); type: cell-based; details: Homo sapiens, PBMC, 5 μg/mL LPS, 24 h, read-out: % inhibition IL-1β (Standard deviation)
Procedure: as §1, §2, §3

Human COX-2 = biological target: T2, Human COX-2 (Homo sapiens, UniProt P35354); experiment: Human COX-2 inhibition assay; type: biochemical; details: HMR 10 μM; extract equiv. 10 μM
T2 sequence (P35354 18-604): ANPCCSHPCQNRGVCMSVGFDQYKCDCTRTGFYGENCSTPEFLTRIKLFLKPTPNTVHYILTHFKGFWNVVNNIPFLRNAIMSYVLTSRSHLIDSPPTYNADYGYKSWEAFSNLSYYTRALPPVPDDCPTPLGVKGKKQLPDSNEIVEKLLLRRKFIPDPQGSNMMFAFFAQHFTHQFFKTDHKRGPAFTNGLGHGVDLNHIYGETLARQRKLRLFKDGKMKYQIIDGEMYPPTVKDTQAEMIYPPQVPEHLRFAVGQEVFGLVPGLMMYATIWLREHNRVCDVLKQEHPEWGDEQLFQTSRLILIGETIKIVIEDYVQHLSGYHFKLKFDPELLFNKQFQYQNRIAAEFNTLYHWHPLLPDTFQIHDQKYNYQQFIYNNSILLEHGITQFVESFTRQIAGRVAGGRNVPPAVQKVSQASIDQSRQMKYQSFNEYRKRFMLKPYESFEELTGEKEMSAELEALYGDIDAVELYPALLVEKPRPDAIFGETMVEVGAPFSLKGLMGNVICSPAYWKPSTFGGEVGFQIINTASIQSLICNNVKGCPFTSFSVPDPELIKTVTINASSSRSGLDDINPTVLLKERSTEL
Description: The results are expressed as a percent inhibition of the control enzyme activity.

[1] = Oxygen Radical Absorbance Capacity (ORAC) assay; details: n=4
Description: 2.3. Oxygen Radical Absorbance Capacity (ORAC) Assay
(Ou B., Hampsch-Woodill M. and Prior R. L.: “Development and Validation of an Improved Oxygen Radical Absorbance Capacity Assay Using Fluorescein as the Fluorescent Probe”, J. Agric. Food Chem., 2001, 49 (10), 4619-4626)
Measurement of antioxidant capacity by the ORAC method is based on the detection of fluorescence drop of fluorescein (FL) thanks to its reaction with peroxyl radical ROO*, in a food matrix containing antioxidant compounds. Fluorescence was read with an excitation wavelength of 485 nm and an emission filter of 528 nm. AAPH solution and FL were prepared in a phosphate buffer solution at 75 mM at pH 7.4. The control of this reaction is the trolox which is also prepared in the same buffer. Six different quantities (10, 20, 35, 50, 70, 80 μl) of product with concentration of 0.5 mg/L were placed in the wells of the microplate with FL and adjusted at the same volume with buffer solution (80 μl). The mixture was preincubated for 30 min at 37° C., before rapidly adding the AAPH solution (220 μl) using a multichannel pipette. The microplate was immediately placed in the reader and the fluorescence recorded every 6 min for 240 min. A blank with FL and AAPH using sodium phosphate buffer instead of the antioxidant solution was used. The inhibition capacity was expressed as reference compound equivalents (μM), and is quantified by integrating of the area under the curve (AUC) of the fluorescein. The assays were carried out in quadruplicate (n=4). Efficacy of the tested samples is expressed as reference ORAC units per gram of products (the higher value corresponds to the stronger antioxidant activity).

[2] = Total AntiOxidant Power (PAOT) assay; details: for total antioxidant efficacy (PAOT): n=4, FIG. 3 and 4
Procedure: 2.4. Total AntiOxidant Power (PAOT®) Assay (Oxidative Stress)
Technology PAOT/POT® (Total AntiOxidant Power/Total Oxidant Power) is based on the electrochemical nature of redox reactions: a balance between antioxidants and oxidants [www.ie-antioxydants.com]. The assays were carried out in quadruplicate (n=4) (The higher value corresponds to the best antioxidant efficacy).

[3] = Trolox Equivalent Antioxidant Capacity (TEAC) assay; details: per 1 g of product; FIG. 2
Procedure: Trolox Equivalent Antioxidant Capacity (TEAC) Assay
ABTS radical cation (ABTS•+) was produced by reacting 7 mM ABTS stock solution with 2.45 mM potassium persulfate and allowing the mixture to stand in the dark at room temperature for 12-16 h before being used. Next ABTS•+solution was diluted with PBS (Phosphate Buffer Saline) (pH 7.4) to an absorbance of 0.5 at 734 nm and equilibrated at 30° C. 200 μl of ABTS•+ and (10, 20, 35, 50, 70, 80 μl) of product solutions (0.5 mg/L) was mixed and adjusted to 300 μl with buffer solution. After 15 min incubation, the optical density was measured. The assays were performed in quadruplicate (n=4). Efficacy is expressed as a value of EC50 (the smaller value of EC50 corresponds to the stronger antioxidant activity).

Structure (SMILES) | inhibition at 10 µM (TNF-α; 10 μM) | inhibition at 30 µM (TNF-α; 30 μM) | inhibition at 100 µM (TNF-α; 100 μM) | inhibition at 10 µM (Human 5-LO) | inhibition at 10 µM (IL-1β; 10 μM) | inhibition at 30 µM (IL-1β; 30 μM) | inhibition at 100 µM (IL-1β; 100 μM) | inhibition at 10 µM (Human COX-2) | μmol Trolox/g tested product [1] | μmol Vit. C/g tested product [1] | μmol Vit. E/g tested product [1] | μmol β-carotene/g tested product [1] | total antioxidant efficacy (PAOT) [2] | antioxidant activity with regard to Trolox ([2]; reference Trolox) | antioxidant activity with regard to Vitamin E ([2]; reference Vitamin E (tocopherol)) | antioxidant activity with regard to β-carotene ([2]; reference β-carotene) | antioxidant activity of 1 g of product equivalent to g of trolox [3] | antioxidant activity of 1 g of product equivalent to g of vitamin E [3]
COc1cc(C[C@H]2C(=O)OC[C@@H]2[C@H](O)c2ccc(O)c(OC)c2)ccc1O (stereo in doubt) [HMR, Hydroxymatairesinol] | 7% | 15% | 26% | 14.7% | 10% | 25% | 28% | 18.7% | 210 ± 50 μmol Trolox/g tested product | 110 ± 10 μmol Vit. C/g tested product | 105 ± 10 μmol Vit. E/g tested product | 27 ± 2 μmol β-carotene/g tested produ | 4.99 mmol/g equivalent of antioxidant | 0.62 gram of reference compound per gram of tested product | 1.07 gram of reference compound per gram of tested product | 2.68 gram of reference compound per gram of tested product |  | 
OC[C@H](Cc1cccc(O)c1)[C@H](CO)Cc1cccc(O)c1 [enterodiol] |  |  |  |  |  |  |  |  | 500 ± 60 μmol Trolox/g tested product | 700 ± 100 μmol Vit. C/g tested product | 600 ± 80 μmol Vit. E/g tested product | 165 ± 5 μmol β-carotene/g tested produ | 1.07 mmol/g equivalent of antioxidant |  |  |  | 0.15 g | 0.22 g
O=C1OC[C@H](Cc2cccc(O)c2)[C@H]1Cc1cccc(O)c1 [enterolactone] |  |  |  |  |  |  |  |  | 560 ± 50 μmol Trolox/g tested product | 110 ± 10 μmol Vit. C/g tested product | 105 ± 10 μmol Vit. E/g tested product | 30 ± 2 μmol β-carotene/g tested produ | 1.06 mmol/g equivalent of antioxidant |  |  |  | 0.13 g | 0.19 g
